Assay: hygroscopicity and storage stability of the salt as described
Format: physicochemical
Conditions: crystalline powder

hygroscopic nature: non-hygroscopic
stability in storage: stable in storage
Substance: pyridoxine α-hydroxyisocaproate
